Series [1] relates to mouse. As to conditions: Subchronic oral toxicity in rodents, b6c3f1, Gavage/Intubation, dose end: 13 week, group: systemic.
Series [2] deals with rat. Conditions: Subchronic oral toxicity in rodents, fischer, Gavage/Intubation, dose end: 13 week, group: systemic, systemic / in life observation / clinical signs / lethargy + systemic / in life observation / mortality / mortality.
Series [3] deals with rat. Conditions: Carcinogenicity, fischer, Oral, Gavage/Intubation, dose end: 103 week, group: systemic.
For series [4], the system named is mouse. Conditions: Carcinogenicity; b6c3f1; Oral; Gavage/Intubation; dose end: 103 week; group: systemic; systemic / pathology microscopic / kidney / inflammation + systemic / pathology microscopic / liver / cytomegaly + systemic / pathology ….
The test system of series [5] is mouse. As to conditions: Sub-acute repeat dose toxicity, b6c3f1, Oral, Gavage/Intubation, dose end: 16 day, group: systemic.
The test system of series [6] is rat. As to conditions: Sub-acute repeat dose toxicity, fischer, Oral, Gavage/Intubation, dose end: 16 day, group: systemic.
The subject of series [7] is rat. Conditions: Multigenerational reproductive toxicity study, wistar, Oral, Feed, dose end: 3 generation.
In series [8] the test system is mouse. As to conditions: Carcinogenicity, cd1, Oral, Feed, dose end: 100 week, group: systemic.
Series [9] relates to rat. As to conditions: Combined chronic toxicity/carcinogenicity, wistar, Oral, Feed, dose end: 104 week, group: systemic.
Series [10] concerns dog. Conditions: Chronic toxicity; beagle; Oral; Capsule; dose end: 52 week; group: systemic; systemic / clinical chemistry / alkaline phosphatase (alp/alk) / alkaline phosphatase (alp/alk) + systemic / organ weight / liver / nos + ….
In series [11] the test system is mouse. Conditions: Carcinogenicity, other, Oral, Feed, dose end: 98 week, group: systemic.
For series [12], the system named is rat. As to conditions: Prenatal developmental toxicity study, wistar, Oral, Gavage/Intubation, dose end: 16 GD.
The next series has as its system rabbit. Conditions: Prenatal developmental toxicity study, dutch, Oral, Gavage/Intubation, dose end: 18 GD.
The subject of series [13] is rat. As to conditions: Combined chronic toxicity/carcinogenicity, wistar, Oral, Feed, dose end: 2 year, group: systemic.
Series [14] concerns mouse. Conditions: Carcinogenicity; cd1; Oral; Feed; dose end: 24 month; group: systemic; systemic / in life observation / clinical signs / anogenital staining + systemic / in life observation / clinical signs / distended abdomens….
In series [15] the test system is dog. Conditions: Subchronic oral toxicity in nonrodent, beagle, Capsule, dose end: 6 month, group: systemic, systemic / organ weight / liver / relative to body weight.
Series [16] deals with rat. As to conditions: Subchronic oral toxicity in rodents, sprague dawley, Gavage/Intubation, dose end: 13 week, group: systemic.
Series [17] relates to rat. Conditions: Combined chronic toxicity/carcinogenicity, sprague dawley, Oral, Feed, dose end: 24 month, group: systemic.
Series [18] has as its system dog. Conditions: Chronic toxicity, beagle, Oral, Feed, dose end: 24 month, group: systemic.
Series [19] deals with mouse. As to conditions: Carcinogenicity, cd1, Oral, Feed, dose end: 104 week, group: systemic.
Setting [20] is: systemic / in life observation / mortality / mortality.
[21] abbreviates: systemic / in life observation / mortality / mortality + systemic / in life observation / body weight / body weight.
[22] abbreviates: systemic / pathology microscopic / kidney / hyperplasia + systemic / pathology microscopic / kidney / mineralization.
Setting [23] is: systemic / pathology microscopic / kidney / hyperplasia + systemic / pathology microscopic / kidney / mineralization + systemic / pathology ….
Setting [24] is: systemic / in life observation / body weight / body weight.
Where [25] appears, read: systemic / in life observation / body weight / body weight + systemic / in life observation / clinical signs / abnormal movements + systemic….
Where [26] appears, read: systemic / in life observation / clinical signs / lethargy.
The mark [27] stands for this setting: group: offspring, systemic / pathology microscopic / liver / hypertrophy.
[28] abbreviates: group: parental, systemic / in life observation / clinical signs / tremors.
The mark [29] stands for this setting: systemic / organ weight / liver / absolute.
[30] abbreviates: systemic / pathology gross / liver / mass + systemic / pathology gross / lung / mass + systemic / pathology microscopic / liver / ….
Where [31] appears, read: systemic / in life observation / clinical signs / tremors + systemic / hematology / platelet / platelet + systemic / organ weight / kidney….
The mark [32] stands for this setting: systemic / hematology / platelet / platelet + systemic / organ weight / liver / relative to body weight + systemic / hematology / leukocyte….
The mark [33] stands for this setting: systemic / organ weight / kidney / absolute + systemic / organ weight / kidney / relative to body weight.
Where [34] appears, read: group: developmental, developmental / developmental malformation / bone / short supernumerary + systemic / in life observation / body weight / fetal weight.
The mark [35] stands for this setting: group: maternal, systemic / in life observation / body weight / body weight gain + systemic / in life observation / clinical signs / headflicking + systemic….
Where [36] appears, read: group: developmental, developmental / developmental malformation / bone / incomplete ossification + systemic / in life observation / body weight / fetal weight.
The mark [37] stands for this setting: group: maternal, systemic / in life observation / body weight / body weight gain.
Where [38] appears, read: group: maternal, systemic / in life observation / body weight / body weight gain + systemic / in life observation / body weight / body weight.
Setting [39] is: systemic / organ weight / kidney / nos + systemic / organ weight / liver / nos + systemic / clinical chemistry / aminopyrine-n-demethylase….
Where [40] appears, read: systemic / organ weight / heart / nos + systemic / organ weight / heart / relative to body weight.
The mark [41] stands for this setting: systemic / organ weight / heart / nos + systemic / organ weight / heart / relative to body weight + systemic / hematology / erythrocyte (rbc….
The mark [42] stands for this setting: systemic / pathology microscopic / liver / eosinophilic focus.
The mark [43] stands for this setting: systemic / organ weight / thyroid gland / relative to body weight.
Setting [44] is: systemic / organ weight / thyroid gland / relative to body weight + systemic / organ weight / liver / relative to body weight.
Where [45] appears, read: systemic / pathology microscopic / liver / adenoma + systemic / pathology microscopic / liver / adenoma/carcinoma combined + systemic / ….

For `CC1=CC(=O)CC(C)(C)C1` [Isophorone], the LEL came to 1000 mg/kg/day with mouse [1] (setting [20]); 1000 mg/kg/day in the series with rat [2]; 250 mg/kg/day with rat [3] (setting [23]); 250 mg/kg/day with mouse [4]; 250 mg/kg/day in the series with mouse [5] (setting [24]); 125 mg/kg/day in the series with rat [6] (setting [26]). Also, the NEL in the series with mouse [1] (setting [20]) was 500 mg/kg/day; with rat [2], 500 mg/kg/day; with rat [3] (setting [23]), under 250 mg/kg/day; in the series on mouse [4] it was under 250 mg/kg/day; with mouse [5] (setting [25]) it was 125 mg/kg/day; in the series on rat [6] (setting [26]) it was under 125 mg/kg/day. Moreover, the LOAEL in the series on mouse [1] (setting [21]) was over 1000 mg/kg/day; in the series with rat [2], over 1000 mg/kg/day; in the series on rat [3] (setting [22]), 250 mg/kg/day; in the series with mouse [4], 250 mg/kg/day; in the series on mouse [5] (setting [24]), 250 mg/kg/day; in the series on rat [6] (setting [24]) it was 1000 mg/kg/day. Besides, the NOAEL is at least 1000 mg/kg/day with mouse [1] (setting [21]); at least 1000 mg/kg/day with rat [2]; under 250 mg/kg/day with rat [3] (setting [22]); under 250 mg/kg/day with mouse [4]; 125 mg/kg/day with mouse [5] (setting [25]); 500 mg/kg/day with rat [6] (systemic / in life observation / clinical signs / lethargy + systemic / in life observation / body weight / body weight + systemic / in life…).

Regarding `CC1(C)C(C=C(Cl)Cl)C1C(=O)OCc1cccc(Oc2ccccc2)c1` (configuration not stated) [Permethrin], the LEL in the series with rat [7] (setting [27]) amounted to 25 mg/kg/day; with rat [7] (setting [28]), 125 mg/kg/day; with mouse [8] (setting [30]), 780 mg/kg/day; in the series with rat [9] (systemic / hematology / platelet / platelet + systemic / pathology microscopic / liver / hypertrophy + systemic / pathology microscopic / …), 50 mg/kg/day; in the series on dog [10], 100 mg/kg/day; with mouse [11] (setting [33]), 26.9 mg/kg/day. Moreover, the LEL in the series on rat [12] (setting [34]) was determined as 150 mg/kg/day; in the series on rat [12] (setting [35]), 150 mg/kg/day; in the series with rabbit (setting [36]), 1200 mg/kg/day; with rabbit (setting [38]) it was 600 mg/kg/day; in the series on rat [13] (setting [39]), 19.4 mg/kg/day; in the series on mouse [14], 3 mg/kg/day. Moreover, in the series with dog [15], the LEL came out at 50 mg/kg/day. Also, the LOAEL is over 125 mg/kg/day in the series with rat [7] (setting [27]); 125 mg/kg/day in the series on rat [7] (setting [28]); 807 mg/kg/day in the series on mouse [8] (setting [29]); 250 mg/kg/day in the series with rat [9] (systemic / in life observation / clinical signs / tremors); 100 mg/kg/day in the series on dog [10]; over 287 mg/kg/day in the series on mouse [11] (setting [32]). Moreover, the LOAEL with rat [12] (setting [34]) is 150 mg/kg/day; in the series with rat [12] (setting [35]), 150 mg/kg/day; in the series on rabbit (group: developmental, developmental / developmental malformation / bone / incomplete ossification), 1200 mg/kg/day; in the series with rabbit (setting [37]) it was 600 mg/kg/day; in the series on rat [13] (systemic / in life observation / clinical signs / hypersensitivity + systemic / in life observation / clinical signs / tremors), 91.5 mg/kg/day; in the series with mouse [14] it was over 714 mg/kg/day. This molecule displayed an LOAEL in the series on dog [15] of over 250 mg/kg/day. For the same molecule, the NEL is under 25 mg/kg/day in the series with rat [7] (setting [27]); 50 mg/kg/day in the series on rat [7] (setting [28]); under 780 mg/kg/day in the series on mouse [8] (setting [30]); 10 mg/kg/day in the series with rat [9] (setting [31]); 5 mg/kg/day in the series on dog [10]; under 26.9 mg/kg/day in the series with mouse [11] (setting [33]). Moreover, the NEL was 50 mg/kg/day in the series on rat [12] (setting [34]); 50 mg/kg/day in the series on rat [12] (setting [35]); 600 mg/kg/day in the series on rabbit (setting [36]); under 600 mg/kg/day in the series on rabbit (setting [38]); under 19.4 mg/kg/day with rat [13] (setting [39]); under 3 mg/kg/day in the series on mouse [14]. The molecule further came in with an NEL in the series with dog [15] of 10 mg/kg/day. Moreover, the NOAEL is at least 125 mg/kg/day in the series on rat [7] (setting [27]); 50 mg/kg/day in the series on rat [7] (setting [28]); under 807 mg/kg/day in the series with mouse [8] (setting [29]); 50 mg/kg/day with rat [9] (setting [31]); 5 mg/kg/day in the series with dog [10]; at least 287 mg/kg/day with mouse [11] (setting [32]). Besides, the NOAEL was 50 mg/kg/day in the series on rat [12] (setting [34]); 50 mg/kg/day in the series with rat [12] (setting [35]); 600 mg/kg/day with rabbit (setting [36]); under 600 mg/kg/day in the series with rabbit (setting [37]); 36.9 mg/kg/day in the series on rat [13] (systemic / in life observation / clinical signs / hypersensitivity + systemic / in life observation / clinical signs / tremors + systemic / …); at least 714 mg/kg/day in the series with mouse [14]. In the series with dog [15], this molecule yielded an NOAEL of at least 250 mg/kg/day.

`O=C([O-])CF.[Na+]` [Sodium fluoroacetate]: in the series with rat [16] (setting [40]), the NEL stood at 0.05 mg/kg/day and the no observed adverse effect level (NOAEL) came out at 0.05 mg/kg/day. For the same molecule, in the series on rat [16] (setting [41]), the LEL worked out at 0.2 mg/kg/day and the lowest observed adverse effect level (LOAEL) stood at 0.2 mg/kg/day.

On to `Cc1[nH]c(=O)n(C(C)(C)C)c(=O)c1Cl` [Terbacil], for which the LOAEL in the series with rat [17] (systemic / organ weight / liver / absolute + systemic / organ weight / liver / relative to body weight + systemic / in life observation / …) worked out at 83 mg/kg/day; in the series with dog [18] (setting [43]) it was 6.25 mg/kg/day; with mouse [19] (systemic / pathology microscopic / liver / hyperplastic nodule (pre-neoplastic)), 1070 mg/kg/day. Moreover, the NOAEL came out at 1.4 mg/kg/day in the series on rat [17] (systemic / organ weight / liver / absolute + systemic / organ weight / liver / relative to body weight + systemic / pathology microscopic / …), 1.25 mg/kg/day in the series with dog [18] (setting [44]) and 179 mg/kg/day in the series on mouse [19] (systemic / pathology microscopic / liver / hyperplastic nodule (pre-neoplastic) + systemic / pathology microscopic / liver / adenoma + …). The values for the LEL in the series on rat [17] (setting [42]), in the series with dog [18] (setting [43]) and in the series with mouse [19] (setting [45]) were 0.9 mg/kg/day, 6.25 mg/kg/day and 7.2 mg/kg/day, respectively. Further, the NEL with rat [17] (setting [42]) was under 0.9 mg/kg/day; in the series with dog [18] (setting [44]), 1.25 mg/kg/day; in the series with mouse [19] (setting [45]), under 7.2 mg/kg/day.

By LOAEL is commonly meant the lowest tested level that showed an adverse finding. In general, NOAEL refers to the highest tested level that showed no adverse finding.

Values taken from EPA's ToxRefDB 2.
